PubChem BioAssay AID328 (DTP/NCI, 2004)
Where “and” joins values, the source holds several entries; their conditions need not be identical. Equal values may be shown once. Inconclusive results and toxic doses are left out.

System: BDF1 mice, P388 leukemia ip, median survival T/C
Assay: NCI In Vivo Anticancer Drug Screen. Data for tumor model P388 Leukemia (intraperitoneal) in B6D2F1 (BDF1) mice
Conditions: endpoint: median survival time, higher = longer survival
How it was run: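 Reported as T/C, where T is the survival measurement in dosed animals and C the same measurement in vehicle controls.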

[1] = dose: 50.0 mg/kg/injection, schedule: Q01DX009 (ip), vehicle: saline with Tween-80
[2] = dose: 100.0 mg/kg/injection, schedule: Q01DX009 (ip), vehicle: saline with Tween-80
[3] = dose: 100.0 mg/kg/injection, schedule: Q04DX003 (ip), vehicle: saline with Tween-80
[4] = dose: 200.0 mg/kg/injection, schedule: Q04DX003 (ip), vehicle: saline with Tween-80
[5] = dose: 400.0 mg/kg/injection, schedule: Q04DX003 (ip), vehicle: saline with Tween-80

NC(=NCCCC(NCc1ccccc1)C(=O)O)N[N+](=O)[O-] (stereo not drawn)
T/C (dose: 50.0 mg/kg/injection, schedule: Q04DX003 (ip), vehicle: saline + alcohol): 103 % of control | T/C (dose: 100.0 mg/kg/injection, schedule: Q04DX003 (ip), vehicle: saline + alcohol): 99 % of control | T/C (dose: 200.0 mg/kg/injection, schedule: Q04DX003 (ip), vehicle: saline + alcohol): 94 % of control | T/C (dose: 400.0 mg/kg/injection, schedule: Q04DX003 (ip), vehicle: saline + alcohol): 105 % of control

CC(=O)N(C)C=C1C(=O)N(C)C(=O)N(C)C1=O
T/C [1]: 102 % of control | T/C [2]: 111 % of control | T/C (dose: 200.0 mg/kg/injection, schedule: Q01DX009 (ip), vehicle: saline with Tween-80): 92 % of control

CN1C(=O)c2ccccc2CC12c1ccccc1C(=O)N2C (stereo not drawn)
T/C (dose: 50.0 mg/kg/injection, schedule: Q01DX005 (ip), vehicle: saline with Tween-80): 86 % of control | T/C (dose: 200.0 mg/kg/injection, schedule: Q01DX005 (ip), vehicle: saline with Tween-80): 86 % of control

O=c1ccc2c([nH]1)CCC2
T/C (dose: 25.0 mg/kg/injection, schedule: Q01DX009 (ip), vehicle: saline with Tween-80): 86 % of control | T/C (dose: 25.0 mg/kg/injection, schedule: Q04DX003 (ip), vehicle: saline): 100 % of control | T/C [1]: 90 % of control | T/C (dose: 50.0 mg/kg/injection, schedule: Q04DX003 (ip), vehicle: saline): 95 % of control | T/C [2]: 95 % of control | T/C (dose: 100.0 mg/kg/injection, schedule: Q04DX003 (ip), vehicle: saline): 100 % of control

C[C@]12CC[C@H]3C(=CCc4cc(O)ccc43)[C@@H]1C/C(=N\O)C2=O
T/C (dose: 100.0 mg/kg/injection, schedule: Q01DX009 (ip), vehicle: saline): 90 % of control | T/C (dose: 100.0 mg/kg/injection, schedule: Q04DX003 (ip), vehicle: Klucel (hydroxypropylcellulose) (HPC)): 104 % of control | T/C (dose: 200.0 mg/kg/injection, schedule: Q01DX009 (ip), vehicle: saline): 100 % of control | T/C (dose: 200.0 mg/kg/injection, schedule: Q04DX003 (ip), vehicle: Klucel (hydroxypropylcellulose) (HPC)): 95 % of control | T/C (dose: 264.0 mg/kg/injection, schedule: Q01DX009 (ip), vehicle: saline with Tween-80): 109 % of control | T/C (dose: 400.0 mg/kg/injection, schedule: Q01DX009 (ip), vehicle: saline with Tween-80): 104 % of control | T/C (dose: 400.0 mg/kg/injection, schedule: Q01DX009 (ip), vehicle: saline): 95 % of control | T/C (dose: 400.0 mg/kg/injection, schedule: Q04DX003 (ip), vehicle: Klucel (hydroxypropylcellulose) (HPC)): 90 % of control | T/C (dose: 600.0 mg/kg/injection, schedule: Q01DX009 (ip), vehicle: saline with Tween-80): 109 % of control

O=C(c1ccccc1)C1OC1c1ccc([N+](=O)[O-])cc1 (stereo not drawn)
T/C (dose: 100.0 mg/kg/injection, schedule: Q04DX003 (ip), vehicle: saline sonified): 104 % of control | T/C (dose: 200.0 mg/kg/injection, schedule: Q04DX003 (ip), vehicle: saline sonified): 100 % of control | T/C (dose: 400.0 mg/kg/injection, schedule: Q04DX003 (ip), vehicle: saline sonified): 100 % of control

CN1CC2OC2C2C1N2C#N (stereo not drawn)
T/C (dose: 25.0 mg/kg/injection, schedule: Q01DX005 (ip), vehicle: saline): 97 % of control | T/C (dose: 50.0 mg/kg/injection, schedule: Q01DX005 (ip), vehicle: saline): 106 % of control | T/C (dose: 100.0 mg/kg/injection, schedule: Q01DX005 (ip), vehicle: saline): 111 % of control | T/C (dose: 200.0 mg/kg/injection, schedule: Q01DX005 (ip), vehicle: saline): 115 % of control

CC(C)n1cnc2c(=S)nc[nH]c21
T/C [2]: 91 % of control | T/C [3]: 100 % of control | T/C [4]: 104 % of control | T/C [5]: 113 % of control

CC(=O)NC(N)=O
T/C (dose: 100.0 mg/kg/injection, schedule: Q01DX001 (ip), vehicle: saline with Tween-80): 100 % of control | T/C (dose: 200.0 mg/kg/injection, schedule: Q01DX001 (ip), vehicle: saline with Tween-80): 100 % of control | T/C (dose: 400.0 mg/kg/injection, schedule: Q01DX001 (ip), vehicle: saline with Tween-80): 109 % of control

O=C(Nc1ccc(C2=NCCN2)cc1)c1ccc(C(=O)Nc2ccc(C3=NCCN3)cc2)c(F)c1
T/C [3]: 172 % of control | T/C [4]: 213 % of control | T/C (dose: 264.0 mg/kg/injection, schedule: Q04DX003 (ip), vehicle: saline with Tween-80): 226 % of control | T/C [5]: 250 % of control and 221 % of control | T/C (dose: 600.0 mg/kg/injection, schedule: Q04DX003 (ip), vehicle: saline with Tween-80): 191 % of control

S=C1NCCS1
T/C (dose: 22.5 mg/kg/injection, schedule: Q01DX009 (ip), vehicle: saline with Tween-80): 97 % of control | T/C (dose: 45.0 mg/kg/injection, schedule: Q01DX009 (ip), vehicle: saline with Tween-80): 97 % of control | T/C (dose: 90.0 mg/kg/injection, schedule: Q01DX009 (ip), vehicle: saline with Tween-80): 92 % of control

NNC(=S)SCc1ccccc1
T/C (dose: 15.0 mg/kg/injection, schedule: Q01DX009 (ip), vehicle: saline with Tween-80): 106 % of control | T/C (dose: 30.0 mg/kg/injection, schedule: Q01DX009 (ip), vehicle: saline with Tween-80): 98 % of control
